Experimental data taken from patent publication EP4488279A1, “SUBSTITUTED HEXAHYDRO-2H-PYRAZINO[1,2-A]PYRAZIN-1(6H)-ONE DERIVATIVES AS ACTIVATORS OF HUMAN CASEINOLYTIC PROTEASE P (HSCLPP)” (Centro Atlantico del Medicamento S.A (Ceamed, S.A), priority 2023, dated 2025).

What was measured:
Yeast + HsCIpP = assay: Yeast growth inhibition screen, yeast expressing human ClpP; type: cell-based; details: Saccharomyces cerevisiae, 24 h, read-out: Yeast + HsCIpP GI50
Text: This technique allows to directionally assemble several DNA fragments into one single DNA piece. It is based on plasmid libraries that share the same DNA backbone but differ in the type of the insert. The assembly of the final cassette is based on the "Golden Gate Cloning" method. Human CLPP gene sequence (codon-optimized for yeast translation) was amplified with well-designed primers from a plasmid kindly provided by Dr. Michael David Tyers (University of Montreal). Once amplified, a MoClo reaction was performed to obtain the final integrative cassette. This cassette was composed as follows: • Type 1: ConLS 3' connector. • Type 2: TDH3 gene promoter (strong and constitutive expression). • Type 3: Amplified human CLPP gene. • Type 4: ADH1 gene terminator. • Type 5: ConR1 5' connector. • Type 6: LEU2 gene as selectable marker for yeast. • Type 7: 3' HO gene homology sequence for yeast integration. • Type 8a: KanR-ColE1 sequence for bacterial amplification and antibiotic resistance. • Type 8b: 5' HO gene homology sequence for yeast integration.
Digestion patterns with several restriction enzymes were carried out to confirm the success of the MoClo system. An extra restriction enzyme reaction (Notl) was performed to linearize the DNA fragment and deplete the bacterial part.
(§1) These cells contain mutants in YRS1, YRR1, PDR1 and PDR3 genes, which are involved in polydrug and pleiotropic resistance networks.
Yeast cells were transformed with the linearized cassette and transformant colonies were selected on minimum media without leucine. Independent clones were checked by PCR and positive ones were stored at -80 °C until use.
(§2) The yeast (both HsCpIP+ and HsCIpP-) are incubated in petri dishes with YPD (Yeast extract peptone dextrose) at 25 °C overnight, after which a colony is isolated, suspended in a flask with fresh YPD and incubating again under the same conditions but with agitation. […] 100 µl of this solution was then placed into the appropriated wells of a standard 96-well plate. Stock solutions (DMSO, 10 mM) of the compounds to be tested are diluted in YPD to 2X of their final concentrations to be tested, and 100 µl added to the appropriate wells. 100 µl of YPD was added to wells designated as the negative control wells, while ONC206 (0.5 µM) was used as the positive control. Once all compounds were added to the plate, an initial T = 0 absorbance value was recorded at 600 Nm. The plate was then incubated at 25 °C with gentle shaking for 24 h. The plates can either be read at multiple time points using a TECAN Spark® Multimode Microplate Reader, or at the end of the experiment using a standard spectrophotometer.
(§3) Table 2: Growth inhibition (GI50) values for compounds of the present invention in yeast containing HsCIpP, and yeast without HsCIpP.

Yeast - HsCIpP = assay: Yeast growth inhibition screen, yeast without human ClpP (selectivity control); type: cell-based; details: Saccharomyces cerevisiae; yeast without HsCIpP, 24 h at 25 °C, absorbance at 600 nm; read-out: Yeast - HsCIpP GI50
Experimental: as §1, §2, §3

4T1 = assay: MTT cell viability assay, 4T1; type: cell-based; details: Mus musculus; 4T1 cells, 48 H, MTT, average of at least two independent experiments; read-out: IC50 4T1 48 H
Experimental: This a mouse epithelial breast cancer cell line classified as being triple negative and mimics human breast cancer; stage IV.
Cell viability was assayed by measuring the mitochondrial reduction of the tetrazolium salt 3-(4,5-methyltiazol-2yl)-2,5diphenyl-tetrazolium bromide] (MTT) (Applichen; A2231,0010) [Mosmann T. J Immunol Methods. […] Oncogene. […] Cells were seeded at a density according to their exponential growth phase (normally 1000 to 5000/well). The cells were cultured at 37 °C in the dark in air containing 5% CO2. After 24h either vehicle (0.05% DMSO), or drug, was added to culture medium at the indicated concentrations (10 to 0,01microM). […] The medium was then removed, and the precipitated formazan was solubilized by the addition of DMSO (200 µL).

MDA-MB-231 = assay: MTT cell viability assay, MDA-MB-231; type: cell-based; details: Homo sapiens, MDA-MB-231 cells, 72 H, average of at least two independent experiments
Experimental: This a human breast cancer cell line derived from a metastatic site from a person.
(§4) Cell viability was assayed by measuring the mitochondrial reduction of the tetrazolium salt 3-(4,5-methyltiazol-2yl)-2,5diphenyl-tetrazolium bromide] (MTT) (Applichen; A2231,0010) [Mosmann T. J Immunol Methods. […] Oncogene. […] Cells were seeded at a density according to their exponential growth phase (normally 1000 to 5000/well). The cells were cultured at 37 °C in the dark in air containing 5% CO2. After 24h either vehicle (0.05% DMSO), or drug, was added to culture medium at the indicated concentrations (10 to 0,01microM). After another 72 h, MTT (0.3 mg/ml) was added to cells, followed by incubation for 2-4h at 37 °C in the dark. The medium was then removed, and the precipitated formazan was solubilized by the addition of DMSO (200 µL).

U2 OS = assay: MTT cell viability assay, U2 OS; type: cell-based; details: Homo sapiens, U2OS, U2 OS cells, 72 H, average of at least two independent experiments
Experimental: U2 OS [American Type Culture Collection (ATCC) reference number HTB-96]. This is a human bone cancer (a moderately differentiated sarcoma) cell derived from an osteosarcoma patient.
as §4

DU-145 = assay: MTT cell viability assay, DU-145; type: cell-based; details: Homo sapiens, DU-145 cells, 72 H, average of at least two independent experiments
Experimental: This a human prostate cancer cell line derived from a metastatic site (brain) of a person.
as §4

PANC1 = assay: MTT cell viability assay, PANC1; type: cell-based; details: Homo sapiens, PANC-1, PANC1 cells, 72 H, average of at least two independent experiments
Experimental: This a human cancer cell line derived from the pancreas of a person.
as §4

4T1 tumours = assay: 4T1 syngeneic tumour model in immunocompetent mice; type: in vivo, Balb/c mice; details: 25 mg/kg PO three times per week
Experimental: 4T1 syngeneic tumours were induced in female immunocompetent Balb/c mice by inject 12500 4T1 cells (passage# <7, in PBS, 100 µL) into their left inguinal mammary fat pad. Once tumour volumes [measure using the formula V = 0.5(length x width^2)] reached […], treatment with either vehicle, or compound in vehicle, was began. Compounds were administered orally (PO) at a constant dose (typically 25 mg/kg) three times per week (Monday, Wednesday and Friday). Compounds (as ether their free base or salt) were formulated as either solutions or homogenous suspensions in a vehicle of 10% Cremaphor RH40 + 90% saline for injection. Formulations were prepared at concentrations (mg/mL) = Dose/5 (e.g. a dose of 25 mg/Kg used a formulation of 5 mg/ml). Once treatments began, tumour volumes and body weights were recorded on each treatment day. Treatments were continued until 25-28 days after first treatment day, after which the mice were sacrificed. Animals whose tumour reached […] during the experiment were also sacrificed.

SMILES: O=C1C2CN(Cc3cccc(F)c3)CCN2CCN1Cc1cccc(Cl)c1 (stereo not drawn) [Compound 4]
- GI50 (Yeast + HsCIpP): 210 nM
- GI50 (Yeast - HsCIpP): > 10000 nM
- IC50 (4T1): 330 nM
- IC50 (MDA-MB-231): 450 nM
- IC50 (U2 OS): 500 nM
- IC50 (DU-145): 850 nM
- IC50 (PANC1): 335 nM
- changes in body weights (4T1 tumours; 4T1 tumour-bearing Balb/c mice, during the experimental period): no significant changes
- Tumour growth reduced (4T1 tumours; established 4T1 tumours, female Balb/c mice, versus vehicle, p < 0.01): 50%
